Results taken from ChEMBL document CHEMBL3885881, “DrugMatrix”.

Species on record: Rattus norvegicus
Assay: DrugMatrix - Regimen: Daily Repeat
Assay type: toxicity, organism-based, Sprague-Dawley
Design: regimen Daily Repeat, gender Male, age 6-8 weeks
Details: in vivo, sc, route subcutaneous, […]; for ABSOLUTE BASOPHIL / ABSOLUTE EOSINOPHIL / ABSOLUTE LYMPHOCYTE / ABSOLUTE MONOCYTE / ABSOLUTE SEGMENTED NEUTROPHIL / BASOPHIL / EOSINOPHIL / ERYTHROCYTE COUNT / HEMATOCRIT / HEMOGLOBIN / LEUKOCYTE COUNT / LYMPHOCYTE / MEAN CORPUSCULAR HEMOGLOBIN / MEAN CORPUSCULAR HEMOGLOBIN CONCENTRATION / MEAN CORPUSCULAR VOLUME / MONOCYTE / NEUTROPHIL / NUCLEATED RED BLOOD CELLS / PLATELET COUNT: tissue Blood; for ALANINE AMINOTRANSFERASE / ALBUMIN / ALKALINE PHOSPHATASE / ASPARTATE AMINOTRANSFERASE / BLOOD UREA NITROGEN / CARBON DIOXIDE / CHLORIDE / CHOLESTEROL / CREATINE PHOSPHOKINASE / CREATININE / GLUCOSE / LACTATE DEHYDROGENASE / LIPASE / PHOSPHORUS / POTASSIUM / SODIUM / TOTAL BILIRUBIN / TOTAL PROTEIN / URIC ACID: tissue Plasma
[1] = 0 mg/kg, 72 h, dose level Control, time 3 day
[2] = 0 mg/kg, 120 h, dose level Control, time 5 day
[3] = 27 mg/kg, 72 h, dose level Low, time 3 day

## Clc1ccc(CSC(Cn2ccnc2)c2ccc(Cl)cc2Cl)cc1 (centres undefined) [SULCONAZOLE]
[1]
  ABSOLUTE BASOPHIL: 0 CELLS/uL
  ABSOLUTE EOSINOPHIL: 42.67 CELLS/uL
  ABSOLUTE LYMPHOCYTE: 10202 CELLS/uL
  ABSOLUTE MONOCYTE: 261.5 CELLS/uL
  ABSOLUTE SEGMENTED NEUTROPHIL: 2193.83 CELLS/uL
  BASOPHIL: 0%
  EOSINOPHIL: 0.33%
  ERYTHROCYTE COUNT: 5.63 x10E6/uL
  HEMATOCRIT: 35.35%
  HEMOGLOBIN: 13.07 G/DL
  LEUKOCYTE COUNT: 12.7 x10E3/uL
  LYMPHOCYTE: 81.17%
  MEAN CORPUSCULAR HEMOGLOBIN: 23.23 pg
  MEAN CORPUSCULAR HEMOGLOBIN CONCENTRATION: 36.97 G/DL
  MEAN CORPUSCULAR VOLUME: 62.82 fL
  MONOCYTE: 2%
  NEUTROPHIL: 16.5%
  NUCLEATED RED BLOOD CELLS: 0 /100WBC
  PLATELET COUNT: 1180.33 x10E3/uL
  ALANINE AMINOTRANSFERASE: 48.67 u/L
  ALBUMIN: 4.08 G/DL
  ALKALINE PHOSPHATASE: 360.67 u/L
  ASPARTATE AMINOTRANSFERASE: 85.5 u/L
  BLOOD UREA NITROGEN: 17.83 mg/dL
  CARBON DIOXIDE: 26.17 mmol/L
  CHLORIDE: 101.83 MEQ/L
  CHOLESTEROL: 71 mg/dL
  CREATINE PHOSPHOKINASE: 515.17 u/L
  CREATININE: 0.22 mg/dL
  GLUCOSE: 192.5 mg/dL
  LACTATE DEHYDROGENASE: 214.67 u/L
  LIPASE: 8.5 u/L
  PHOSPHORUS: 12.95 mg/dL
  POTASSIUM: 6.39 MEQ/L
  SODIUM: 142.38 MEQ/L
  TOTAL BILIRUBIN: 0.18 mg/dL
  TOTAL PROTEIN: 5.95 G/DL
  URIC ACID: 1.83 mg/dL
[2]
  ABSOLUTE BASOPHIL: 0 CELLS/uL
  ABSOLUTE EOSINOPHIL: 188.5 CELLS/uL
  ABSOLUTE LYMPHOCYTE: 12360.83 CELLS/uL
  ABSOLUTE MONOCYTE: 64.33 CELLS/uL
  ABSOLUTE SEGMENTED NEUTROPHIL: 1986.33 CELLS/uL
  BASOPHIL: 0%
  EOSINOPHIL: 1.33%
  ERYTHROCYTE COUNT: 5.52 x10E6/uL
  HEMATOCRIT: 35.82%
  HEMOGLOBIN: 13.25 G/DL
  LEUKOCYTE COUNT: 14.6 x10E3/uL
  LYMPHOCYTE: 84.5%
  MEAN CORPUSCULAR HEMOGLOBIN: 24.05 pg
  MEAN CORPUSCULAR HEMOGLOBIN CONCENTRATION: 36.98 G/DL
  MEAN CORPUSCULAR VOLUME: 64.97 fL
  MONOCYTE: 0.5%
  NEUTROPHIL: 13.67%
  NUCLEATED RED BLOOD CELLS: 0 /100WBC
  PLATELET COUNT: 1297.83 x10E3/uL
  ALANINE AMINOTRANSFERASE: 51.17 u/L
  ALBUMIN: 4.08 G/DL
  ALKALINE PHOSPHATASE: 393.17 u/L
  ASPARTATE AMINOTRANSFERASE: 111 u/L
  BLOOD UREA NITROGEN: 18.17 mg/dL
  CARBON DIOXIDE: 25 mmol/L
  CHLORIDE: 105.17 MEQ/L
  CHOLESTEROL: 65.5 mg/dL
  CREATINE PHOSPHOKINASE: 911.5 u/L
  CREATININE: 0.21 mg/dL
  GLUCOSE: 183 mg/dL
  LACTATE DEHYDROGENASE: 189 u/L
  LIPASE: 8.33 u/L
  PHOSPHORUS: 12.78 mg/dL
  POTASSIUM: 6.05 MEQ/L
  SODIUM: 144.57 MEQ/L
  TOTAL BILIRUBIN: 0.25 mg/dL
  TOTAL PROTEIN: 5.83 G/DL
  URIC ACID: 1.58 mg/dL
[3]
  ABSOLUTE BASOPHIL: 0 CELLS/uL
  ABSOLUTE EOSINOPHIL: 84.67 CELLS/uL
  ABSOLUTE LYMPHOCYTE: 11847.67 CELLS/uL
  ABSOLUTE MONOCYTE: 101 CELLS/uL
  ABSOLUTE SEGMENTED NEUTROPHIL: 2233.33 CELLS/uL
  BASOPHIL: 0%
  EOSINOPHIL: 0.67%
  ERYTHROCYTE COUNT: 5.29 x10E6/uL
  HEMATOCRIT: 32.9%
  HEMOGLOBIN: 12.1 G/DL
  LEUKOCYTE COUNT: 14.27 x10E3/uL
  LYMPHOCYTE: 83.33%
  MEAN CORPUSCULAR HEMOGLOBIN: 22.9 pg
  MEAN CORPUSCULAR HEMOGLOBIN CONCENTRATION: 36.8 G/DL
  MEAN CORPUSCULAR VOLUME: 62.23 fL
  MONOCYTE: 0.67%
  NEUTROPHIL: 15.33%
  NUCLEATED RED BLOOD CELLS: 0 /100WBC
  PLATELET COUNT: 979.33 x10E3/uL
  ALANINE AMINOTRANSFERASE: 50.67 u/L
  ALBUMIN: 4.07 G/DL
  ALKALINE PHOSPHATASE: 355.67 u/L
  ASPARTATE AMINOTRANSFERASE: 89 u/L
  BLOOD UREA NITROGEN: 18 mg/dL
  CARBON DIOXIDE: 26.33 mmol/L
  CHLORIDE: 105.67 MEQ/L
  CHOLESTEROL: 74.33 mg/dL
  CREATINE PHOSPHOKINASE: 269.33 u/L
  CREATININE: 0.22 mg/dL
  GLUCOSE: 174 mg/dL
  LACTATE DEHYDROGENASE: 83.33 u/L
  LIPASE: 8.33 u/L
  PHOSPHORUS: 14.23 mg/dL
  POTASSIUM: 5.88 MEQ/L
  SODIUM: 146.57 MEQ/L
  TOTAL BILIRUBIN: 0.17 mg/dL
  TOTAL PROTEIN: 5.83 G/DL
  URIC ACID: 1.5 mg/dL
